The record followed here is US20170051149A1, “AZOARYLS AS REVERSIBLY MODULATABLE TUBULIN INHIBITORS” (ECOLE NORMALE SUPERIEURE DE LYON, priority 2014, published 2017).

One data set has as its system HeLa cells. Description: cytotoxicity by crystal violet staining. The class given is cell-based. The following applies: 40 h. As for the experimental part:
Seven of the compounds according to the invention were selected for biological tests. Their cytotoxicity was assessed using crystal violet staining as adapted from standard procedure^[31]. Briefly, HeLa cells were seeded on 96-well plates, treated with the given concentrations of the selected compound, and exposed or not to the pulse protocol of illumination with light at 390 nm (pulses of 75 ms every 15 s). After 40 h cells were stained with crystal violet solution (0.5% crystal violet in 20% methanol) for 10 min. Unbound crystal violet was removed by rinsing with distilled water and cells were air-dried. Crystal violet was subsequently eluted from cells with 0.1 M sodium citrate in 50% ethanol. The absorbance of crystal violet is proportional to the cell number and was determined at 590 nm with a FLUOstar Omega microplate reader (BMG Labtech).
Each compound was tested at 6 doses: 100 nM, 500 nM, 1 μM, 2 μM, 5 μM and 10 μM. In order to ensure their solubility in the cell culture media, DMSO was used as a co-solvent, and to provide comparability between all samples the volume of DMSO was adjusted to obtain its final concentration as 1% in the cell culture media for all the compounds at all concentrations tested.
Results presented in Table 4 below are expressed as a fold growth relative to the control growth of the cells treated only with a co-solvent (1% DMSO), and are represented as a mean value from triplicates coming from a representative experiment.

Data set [1] in a line: thermal reversion halflife of spontaneous cis->trans isomerisation. The class given is physicochemical. The following applies: PBS pH = 7.4, 20% MeCN. The source says:
Finally, trends in τ were ascertained by establishing the PSS at λstrong, then turning off the light source at time t0, and measuring A(λstrong, t) over time. Data were acquired for half an hour, or else the first three halflives (whichever was the shorter period), then fitted to the equation:
A(λstrong,t)=A(λstrong,dark)−[A(λstrong,dark)−A(λstrong,t0)]×e^−kt
This fit was used to return an in vitro halflife τ* for the cis->trans spontaneous thermal reversion isomerisation process, defined as τ=ln 2/k. It should be noted however, that azoaryl compounds' thermal reversion rates are known to depend strongly upon their microenvironment, such as pH and solvent/solvation effects^[7,38]. This was shown for compound (I.1), where a change of only 1.4 pH units gave a 25% change in τ*; note that different compounds are expected to respond very differently to changes in pH so no unifying trends are expected. Therefore the τ* acquired in vitro were considered appropriate only for qualitative intercomparison between samples (trend of τ* vs structure), rather than quantitative prediction of the τ values which might be experienced in cellulo or in vivo. Indeed, these in vitro τ* values appeared at least three times longer than what would have been expected based on in cellulo experiments where the pause time between activating pulses was varied.
Thermal reversion times were measured as described above. Those for selected compounds are presented below (Table 2).

Data set [2] in a line: UV-Vis absorption spectra of trans and cis isomers (λstrong, εE, λiso). The following applies: PBS pH = 7.4, 20% MeCN. The data set is classed as physicochemical. As for the experimental part: A(λmeas, λirrad) is used to indicate the measured UV-Vis absorption spectrum in the range 340 nm<λmeas<650 nm, as a function of the irradiating wavelength λirrad once PSS(λirrad) has been established. UV-Vis measurement of A(λmeas, λirrad) was performed. It was considered that the PSS had been established when the absorbance profile ceased to alter under continued irradiation. An isosbestic point (wavelength λiso) was found for each compound by examining where the absorption A(λmeas) was invariant with respect to changing λirrad. A(λmeas, dark) was also acquired with samples that had been kept in the dark for at least several hours, and it was assumed that no significant spectral contribution from the cis isomer was present in these spectra. […]
HPLC (high-performance liquid chromatography) was then used as described in Part A to measure ε*E(λ) and ε*Z(λ) (the separated absorption profiles of trans and cis isomers respectively, in arbitrary units which are not intercomparable in an absolute sense). It was approximated that these spectra would be identical in shape if measured under the UV-Vis conditions, so once ε*E(λ) and ε*Z(λ) were scaled appropriately relative to each other, these scaled spectra could be used to deconvolute A(λmeas, λirrad). This approximation was considered useful especially in the regions of greatest spectral interest, ie. regions of relatively strong absorption (since only rather well-absorbed wavelengths will allow significant photoisomerisation under finite photon flux). To place the arbitrary-unit absorption spectra on an absolute scale, the maximal absorption wavelength λstrong of the trans-isomer was first selected by examining A(λmeas, dark): typically, λstrong≈380 nm. with Expressing A(λstrong, dark) in units M^−1cm^−1, ε*E(λstrong) was then scaled so that εE(λstrong)=A(λstrong, dark), giving:
εE(λ)=ε*E(λ)×[A(λstrong,dark)/ε*E(λstrong)]
and the isosbestic point was used to scale the cis-isomer spectrum as per:
εZ(λ)=ε*Z(λ)×[εE(λiso)/ε*Z(λiso)]
However, using A(λstrong, dark) was preferred, since A(λiso) was typically so much smaller that the standard deviation in the scaled absorptivities which it generated was far greater.
Absorption spectra in cuvette (“UV-Vis”) were acquired on a Varian CaryScan 50 (1 cm, 100 μL or 1 mL volume) with Peltier cell temperature control unit maintained at 37° C., in PBS at pH˜7.4 containing a low percentage of cosolvent if needed (typically 2% MeCN or 5% DMSO). A ThorLabs Polychrome V monochromator with a fibre optic cable output directed into the cuvette was used to perform photoisomerisation studies by UV-Vis spectrophotometry although single LEDs of approximately 10-20 mW output, 15-20° cone angle, and 10-15 nm bandwidth FWHM, obtained commercially from Roithner Lasertechnik GmbH, were equally successful in providing repeatable monochromatic photoisomerisation. Separated spectra of trans and […] forms were acquired from the inline Diode Array Detector on the AGILENT 1260 SL coupled LC-MS system after HPLC separation. Fluorescence spectrophotometry (excitation and emission spectra) were acquired on a Varian CaryEclipse fluorescence spectrophotometer.
By the above procedure, the trans- and cis-isomers of each species were separated by HPLC as described in Part A, and ε*E(λ) and ε*Z(λ) were measured on the inline ultraviolet/visible Diode Array Detector; these were then scaled as outlined above. The parameters λstrong, εE(λstrong) and λiso are tabulated for selected compounds below (Table 1).

Setting [3] is: 100 nM, 390 nm (75 ms every 15 s).
[4] abbreviates: 500 nM, 390 nm (75 ms every 15 s).
Setting [5] is: 1 μM, 390 nm (75 ms every 15 s).
Where [6] appears, read: 2 μM, 390 nm (75 ms every 15 s).
The mark [7] stands for this setting: 5 μM, 390 nm (75 ms every 15 s).
Setting [8] is: 10 μM, 390 nm (75 ms every 15 s).

For the molecule `COc1ccc(N=Nc2cc(OC)c(OC)c(OC)c2)cc1N` [I.2, 2-methoxy-5-((3,4,5-trimethoxyphenyl)diazenyl)aniline], the mean fold growth came out at 1.10 fold with HeLa cells (setting [3]); 0.97 fold in the data set with HeLa cells (100 nM, Dark); 0.83 fold in the data set on HeLa cells (setting [4]); 0.90 fold in the data set on HeLa cells (500 nM, Dark); 0.50 fold with HeLa cells (setting [5]); 0.89 fold in the data set with HeLa cells (1 μM, Dark). The mean fold growth in the data set with HeLa cells (setting [6]) is on record as 0.47 fold; in the data set with HeLa cells (2 μM, Dark) it was 0.81 fold; with HeLa cells (setting [7]) it was 0.32 fold; in the data set with HeLa cells (5 μM, Dark), 0.86 fold; with HeLa cells (setting [8]), 0.34 fold; in the data set with HeLa cells (10 μM, Dark), 0.70 fold. Moreover, the “τ, reversion time” value in data set [1] stood at 0.75 min. In addition, the “εE(λstrong)” value in data set [2] is 11400 M⁻¹ cm⁻¹. The same molecule had a λiso in data set [2] of 470 nm. The same molecule registered a λstrong in data set [2] of 365 nm.
`COc1ccc(N=Nc2cc(OC)c(OC)c(OC)c2)cc1F` [I.3, 1-(3-fluoro-4-methoxyphenyl)-2-(3,4,5-trimethoxyphenyl)diazene]: the mean fold growth was determined as 0.93 fold in the data set with HeLa cells (setting [3]); 1.03 fold in the data set on HeLa cells (100 nM, Dark); 0.88 fold in the data set with HeLa cells (setting [4]); 1.00 fold in the data set with HeLa cells (500 nM, Dark); 0.82 fold in the data set with HeLa cells (setting [5]); 0.95 fold in the data set with HeLa cells (1 μM, Dark). Also, the mean fold growth in the data set with HeLa cells (setting [6]) was determined as 0.62 fold; in the data set with HeLa cells (2 μM, Dark) it was 0.90 fold; in the data set with HeLa cells (setting [7]) it was 0.39 fold; in the data set with HeLa cells (5 μM, Dark), 0.96 fold; with HeLa cells (setting [8]), 0.47 fold; in the data set on HeLa cells (10 μM, Dark), 0.99 fold. Further, the “τ, reversion time” value in data set [1] was 61 min. Further, the “εE(λstrong)” value in data set [2] stood at 13300 M⁻¹ cm⁻¹. This molecule showed a λiso in data set [2] of 445 nm. This molecule also yielded a λstrong in data set [2] of 365 nm.
On to `COc1ccc(N=Nc2cc(OC)c(OC)c(OC)c2)c(F)c1` [I.4, 1-(2-fluoro-4-methoxyphenyl)-2-(3,4,5-trimethoxyphenyl)diazene], for which the mean fold growth was found to be 0.98 fold in the data set on HeLa cells (setting [3]); 0.93 fold in the data set with HeLa cells (100 nM, Dark); 0.78 fold in the data set with HeLa cells (setting [4]); 0.93 fold in the data set on HeLa cells (500 nM, Dark); 0.53 fold with HeLa cells (setting [5]); 0.89 fold in the data set with HeLa cells (1 μM, Dark). For the same molecule, the mean fold growth in the data set with HeLa cells (setting [6]) is listed as 0.48 fold; in the data set on HeLa cells (2 μM, Dark), 0.94 fold; with HeLa cells (setting [7]) it was 0.44 fold; with HeLa cells (5 μM, Dark) it was 0.94 fold; in the data set with HeLa cells (setting [8]) it was 0.36 fold; in the data set on HeLa cells (10 μM, Dark) it was 0.78 fold. Further, the “τ, reversion time” value in data set [1] turned out to be 119 min. In addition, the “εE(λstrong)” value in data set [2] is 19804 M⁻¹ cm⁻¹. For the same molecule, the λiso in data set [2] was found to be 455 nm. This molecule also had a λstrong in data set [2] of 365 nm.
Turning to `COc1ccc(N=Nc2cc(OC)c(OC)c(OC)c2)cc1` [I.6, 1-(4-methoxyphenyl)-2-(3,4,5-trimethoxyphenyl)diazene, reference compound], the mean fold growth in the data set with HeLa cells (setting [3]) is 0.99 fold; in the data set with HeLa cells (100 nM, Dark) it was 1.00 fold; with HeLa cells (setting [4]), 1.09 fold; with HeLa cells (500 nM, Dark), 1.07 fold; in the data set on HeLa cells (setting [5]) it was 0.79 fold; in the data set with HeLa cells (1 μM, Dark), 0.96 fold. Besides, the mean fold growth in the data set with HeLa cells (setting [6]) stood at 0.47 fold; with HeLa cells (2 μM, Dark) it was 0.96 fold; in the data set on HeLa cells (setting [7]), 0.68 fold; with HeLa cells (5 μM, Dark) it was 0.93 fold; in the data set on HeLa cells (setting [8]) it was 0.37 fold; with HeLa cells (10 μM, Dark), 0.88 fold. The “τ, reversion time” value in data set [1] was 83 min. Moreover, in data set [2], the “εE(λstrong)” value was found to be 16300 M⁻¹ cm⁻¹. The molecule also came in with a λiso in data set [2] of 445 nm. The λstrong in data set [2] is listed as 365 nm.
